# Source: US10682388B2, “Targeting of PELP1 in cancer therapy” (THE BOARD OF REGENTS OF THE UNIVERSITY OF TEXAS SYSTEM, priority 2014, dated 2020)
# Entries after “also recorded” stand apart in the source; their conditions may differ.
# Tests used:
# [1] = tested on: ZR75PELP1KD and MCF7PEP1KD cells; experiment: MTT proliferation assay in PELP1 knockdown cells; format: cell-based, Human; details: increasing doses 10, 20, or 50 μM, day 7, FIGS. 8A-B
# Method: FIGS. 8A-C. (FIG. 8A) ZR75PELP1KD cells were treated in triplicate with TAT or PIP1 (10, 20, or 50 μM) every 3 days and proliferation was measured by MTT assay on day 7. (FIG. 8B) MCF7PELP1KD cells were treated in triplicate with TAT or PIP1 (10, 20, or 50 μM) every 3 days and proliferation was measured by MTT assay on day 7. (FIG. 8C) MDAMB231 and MDAMB468 cells were treated in triplicate with TAT or PIP1 (10 μM) every 3 days and proliferation was measured by MTT assay on day 7. Cell proliferation rates were measured by using MTT Cell Viability Assay in 96-well plates. Model cells were seeded in 96-well plates (1×10^3 cells/well) in DMEM or RPMI medium containing 10% serum. After an overnight incubation, cells were treated with varying concentrations of the peptides for 3-7 days and growth inhibition was determined by using traditional MTT assay (Sigma) following manufacturer's instructions.
# [2] = tested on: G9a target genes Pecam1, Serac1, Rb1 and Bmi1 in ZR75 cells; experiment: qRTPCR of G9a target genes; format: cell-based, Human; details: 10 μM, FIG. 3B
# Method: FIGS. 3A-F. (FIG. 3A) Recombinant histones were incubated with G9a with increasing concentrations of PELP1, incubated 1 hour at 30° C. and western blot analysis was performed for expression of H3K9me2. Total histone H3 is shown as the control. (FIG. 3B) qRTPCR analysis of ZR75 and ZRPELP1KD cells treated with 10 μM TAT or PIP1 for 24 hours. G9a target genes PECAM1, SERAC1, RB1 and BMI1 expression is shown as—fold change over actin. (FIG. […]) ChIP-sequencing location analysis of H3K9me2 in control ZR75 model cells. (FIG. 3D) ChIP-sequencing location analysis of H3K9me2 in stable ZR75PELP1KD cells. (FIG. 3E) Ingenuity pathway analysis of genes from binding peaks of ChIP-sequencing of H3K9me2 in stable PELP1 ZR75PELP1KD cells. (FIG. 3F) Image from Integrated Genome Viewer of ChIP-sequencing of H3K9me2 in ZR75 and ZRPELP1KD cells.
# Model cells ZR75 and ZRPELP1KD were grown in 8% DCC media for 72 hours and treated with TAT or PIP1 (10 μM) for […]. RNA was isolated by Trizol and cDNA was synthesized by Superscript III First Strand reverse transcriptase (Invitrogen). qPCR was performed in triplicate by SyberGreen using an Illumina Eco Real-Time PCR System. Gene expression was normalized to actin.
# [3] = tested on: BG1 cells; experiment: Ovarian cancer cell proliferation; format: cell-based; details: BG1, FIG. 14
# Method: FIG. 14. […] Cell proliferation rates were measured by using MTT Cell Viability Assay in 96-well plates. Model cells were seeded in 96-well plates (1×10^3 cells/well) in DMEM or RPMI medium containing 10% serum. After an overnight incubation, cells were treated with varying concentrations of the peptides for 3-7 days and growth inhibition was determined by using traditional MTT assay (Sigma) following manufacturer's instructions.
# [4] = tested on: ZRPELP1 cells; experiment: Soft agar colony formation assay; format: cell-based, Human; details: 10 μM every three days, colonies counted day 14, FIG. 5C
# Method: FIGS. 5A-D. (FIG. 5A) ZR75vec, ZR75PELP1, MCF7vec and MCF7PELP1 cells were plated in the top of a Boyden chamber transwell, treated with TAT, PIP1 or PIP2 (10 μM) and absorbance was measured at 12 hours in triplicate. (FIG. 5B) MCF7vec, MCFP7ELP1, ZR75vec and ZR75PELP1 cells were treated in triplicate with TAT, PIP1 or PIP2 (10 μM) every 3 days, fixed with methanol on day 10 and stained with crystal violet. Average colonies per well are shown. (FIG. 5C) ZR75vec and ZR75PELP1 cells were plated in triplicate in agar with 8% RPMI with TAT, PIP1 or PIP2 (10 μM). Colonies were counted on day 14, representative images are shown on right. (FIG. 5D) ZR75 cells were plated on coverslips in triplicate and treated with TAT or PIP1 (10 μM) for 24 hours. Cells were fixed with paraformaldehyde and labeled with TUNEL and DAPI, representative images are shown on right.
# Model cells MCF7, MCF7-PELP1, ZR75 and ZR75-PELP1 were seeded in a 0.6% agar solution with RPMI/10% FBS over a base agar layer in 35 mm plates in triplicate with TAT, PIP1, or PIP2 (10 μM). Media with peptide was added every 3 days and colonies were counted after 14 days.
# [5] = tested on: MCF7-TamR and MCF7-LTLT cells; experiment: Therapy resistance assays, MTT; format: cell-based, Human; details: FIGS. 4D-E, 11
# Method: FIGS. 4A-E. (FIG. 4A) ZR75vec, ZR75PELP1, MCF7vec and MCF7PELP1 cells were treated in triplicate with TAT, PIP1 or PIP1 deletions (Del1, Del2, Del3) at 10 uM every 3 days and proliferation was measured by MTT assay on day 7. (FIG. 4B) ZRPELP1 cells were transfected with ERE-luciferase and treated with TAT, PIP1, or PIP2 for 24 hours and with estradiol for 12 hours. Relative luciferase activity was measured in triplicate. (FIG. 4C) ZR75 cells were grown in 5% DCC media for 72 hours, treated with TAT or PIP1 every 3 days, and treated with estradiol 10^−7 M for 12 hours. Proliferation was measured in triplicate on day 7 by MTT assay at 595 nm. (FIG. 4D) MCF7-Letrozole resistant cells were grown in 5% DCC media for 72 hours, treated with TAT, PIP1 or PIP2 every 3 days, and letrozole or estradiol 10^−7 M for 12 hours. Proliferation was measured in triplicate on day 7 by MTT assay at 595 nm. (FIG. 4E) MCF7-Tamoxiefn resistant cells were grown in 5% DCC media for 72 hours, treated with TAT, PIP1 or PIP2 every 3 days, and tamoxifen or estradiol 10^−7 M for 12 hours. Proliferation was measured in triplicate on day 7 by MTT assay at 595 nm.
# FIG. 11. Cell proliferation assay: letrozole-resistant MCF-7-LTLT cells and Tamoxifen resistant MCF7-Tam cells were treated with TAT, PIP1, or PIP2 (10 μM)+/− letrozole or Tamoxifen.
# Tamoxifen (Tam) therapy resistant MCF7-TamR and letrozole resistant MCF7-LTLT cells were cultured in tamoxifen or letrozole (10^-7M) containing media in the presence or absence of peptides and proliferation was measured by MTT assay (Sigma) following manufacturer's instructions.
sequence,measurement,setting,value
GRKKRRQRRRGGMVEFRWSCPGRRKAKA [PIP1],proliferation in PELP1 knockdown cells,[1],only saw an effect at very high concentrations
same,"expression of G9a target genes Pecam1, Serac1, Rb1 and Bmi1",[2],decrease in the expression G9a upregulated target genes
same,proliferation of ovarian cancer cells,[3],dose-dependent decrease in the proliferation; also recorded: inhibits proliferation of ovarian cancer cells
same,colony formation in soft agar (anchorage independence),[4],substantial decrease in colony formation
same,proliferation of therapy resistant cell lines,"[5]; MCF7-TamR and MCF7-LTLT, 10 μM",inhibited the proliferation; also recorded: efficiently reduce the growth of therapy resistant cells
same,"combined effect on proliferation with hormonal therapy (tamoxifen, letrozole)",[5]; therapy resistant cells,synergistic inhibition of proliferation with tamoxifen
